# Measurements from article PMC2855616 (ACS Chemical Biology, 2010).
# Test system: hexokinase from Saccharomyces cerevisiae
# Experiment: initial rates of ADP generation monitored with 5-ATR-ParM biosensor
# Type: biochemical
# Details: read-out: KM^glucose; 1 mM ATP, 50 mM Tris-HCl pH 7.5, 25 mM KCl, 10 mM MgCl2, 20 °C
smiles,measurement,value
OC[C@H]1OC(O)[C@H](O)[C@@H](O)[C@@H]1O (stereo partly drawn) [D-glucose],Km,180 ± 9 µM
